These results are taken from US10344024B2, “Compounds as ROR gamma modulators” (Glenmark Pharmaceuticals S.A., priority 2015, dated 2019).

The assay has as its target T1, GST-tagged ROR gamma ligand binding domain (LBD) (Homo sapiens, UniProt P51449).
T1 construct: purchased Invitrogen
T1 sequence (P51449 269-508 limits assumed): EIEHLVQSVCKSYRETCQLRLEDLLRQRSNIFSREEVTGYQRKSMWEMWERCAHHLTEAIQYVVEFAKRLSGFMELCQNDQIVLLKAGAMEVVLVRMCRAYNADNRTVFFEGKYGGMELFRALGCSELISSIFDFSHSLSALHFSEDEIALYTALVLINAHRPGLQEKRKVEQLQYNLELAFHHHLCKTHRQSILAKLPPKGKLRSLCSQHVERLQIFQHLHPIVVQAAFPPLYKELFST
Put plainly: TR-FRET assay for ROR gamma (LanthaScreen co-activator peptide recruitment). In kind it is biochemical. The following applies: for inhibition at 1 µM: compound concentration 1 μM; for inhibition at 1 µM / inhibition at 10 µM: TR-FRET ratio 520/495, percent of control; for inhibition at 10 µM: compound concentration 10 μM; for IC50: from dose response curve, nonlinear regression, read-out: IC50 range. Summed up: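 Antagonist-mode co-activator recruitment: 10 nM GST-RORγ LBD with compound (4% DMSO final) in 25 mM HEPES pH 7.4, 100 mM NaCl, 5 mM DTT, 0.01% BSA, 1 h at 22° C.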

Where only a bound is given, the exact number is not on record here.

`CCC(F)(F)c1ccc(CC(=O)Nc2ccc(-c3nccnc3N[C@@H](C)c3ccc(F)cc3Cl)cc2)cc1` [Example 70, (S)-N-(4-(3-((1-(2-Chloro-4-fluorophenyl)ethyl)amino)pyrazin-2-yl)phenyl)-2-(4-(1,1-difluoropropyl)phenyl)acetamide]: the inhibition at 1 µM amounted to 94.1%, the inhibition at 10 µM stood at 93.8% and the IC50 was < 50 nM.
As for `CC(O)C(F)(F)c1ccc(CC(=O)Nc2ccc(-c3nccnc3NCC3CCCCC3)cc2)cc1` (centres unmarked) [Example 71, N-(4-(3-((Cyclohexylmethyl)amino)pyrazin-2-yl)phenyl)-2-(4-(1,1-difluoro-2-hydroxypropyl)phenyl)acetamide], the inhibition at 1 µM was 20.5% and the inhibition at 10 µM was 73.7%.
As to `CC(O)C(F)(F)c1ccc(CC(=O)Nc2ccc(-c3nccnc3N[C@@H](C)c3ccc(Cl)cc3)cc2)cc1` (stereo partly drawn) [Example 72, N-(4-(3-(((S)-1-(4-Chlorophenyl)ethyl)amino)pyrazin-2-yl)phenyl)-2-(4-(1,1-difluoro-2-hydroxypropyl)phenyl)acetamide], the inhibition at 1 µM turned out to be 86.9%, the inhibition at 10 µM worked out at 93.4% and the IC50 is < 50 nM.
The corresponding values for `CC(O)C(F)(F)c1ccc(CC(=O)Nc2ccc(-c3nccnc3N[C@@H](C)c3ccccc3Cl)cc2F)cc1` (stereo partly drawn) [Example 73, N-(4-(3-(((S)-1-(2-Chlorophenyl)ethyl)amino)pyrazin-2-yl)-2-fluorophenyl)-2-(4-(1,1-difluoro-2-hydroxypropyl)phenyl)acetamide] are 78.5%, 89.2% and 100 to 500 nM.
Turning to `CC(O)C(F)(F)c1ccc(CC(=O)Nc2ccc(-c3nccnc3N[C@@H](C)c3ccccc3Cl)c(F)c2)cc1` (stereo partly drawn) [Example 74, N-(4-(3-(((S)-1-(2-Chlorophenyl)ethyl)amino)pyrazin-2-yl)-3-fluorophenyl)-2-(4-(1,1-difluoro-2-hydroxypropyl)phenyl)acetamide], the inhibition at 1 µM turned out to be 79.2%, the inhibition at 10 µM stood at 89.9% and the IC50 fell in the range of 50 to 100 nM.
The corresponding values for `CCC(F)(F)c1ccc(CC(=O)Nc2ccc(-c3nccnc3OCc3ccccc3)cc2)cc1` [Example 75, N-(4-(3-(Benzyloxy)pyrazin-2-yl)phenyl)-2-(4-(1,1-difluoropropyl)phenyl)acetamide] are 75.7%, 84.2% and 50 to 100 nM.
The corresponding values for `CCC(F)(F)c1ccc(CC(=O)Nc2ccc(-c3nccnc3OC(C)c3ccccc3)cc2)cc1` (centres unmarked) [Example 76, 2-(4-(1,1-Difluoropropyl)phenyl)-N-(4-(3-(1-phenylethoxy)pyrazin-2-yl)phenyl)acetamide] are 78.1%, 87.5% and 100 to 500 nM.
In the case of `CCC(F)(F)c1ccc(CC(=O)Nc2ccc(-c3nccnc3OCc3ccc(F)cc3Cl)cc2)cc1` [Example 77, N-(4-(3-((2-Chloro-4-fluorobenzyl)oxy)pyrazin-2-yl)phenyl)-2-(4-(1,1-difluoropropyl)phenyl)acetamide], the inhibition at 1 µM came to 80.5%, the inhibition at 10 µM was determined as 73.7% and the 50% inhibitory concentration (IC50) was < 50 nM.
The corresponding values for `CC(O)C(F)(F)c1ccc(CC(=O)Nc2ccc(-c3nccnc3OCc3ccccc3)cc2)cc1` (centres unmarked) [Example 78, N-(4-(3-(Benzyloxy)pyrazin-2-yl)phenyl)-2-(4-(1,1-difluoro-2-hydroxypropyl)phenyl)acetamide] are 89.6%, 93.9% and < 50 nM.
Consider `CCC(F)(F)c1ccc(CC(=O)Nc2ccc(-c3nccnc3O[C@H](C)c3ccccc3)cc2)cc1` [Example 79, (R)-2-(4-(1,1-Difluoropropyl)phenyl)-N-(4-(3-(1-phenylethoxy)pyrazin-2-yl)phenyl)acetamide], for which the inhibition at 1 µM is 69.5%, the inhibition at 10 µM was 85.8% and the IC50 was in the range of 100 to 500 nM.
For `CCC(F)(F)c1ccc(CC(=O)Nc2ccc(-c3nccnc3O[C@@H](C)c3ccccc3)cc2)cc1` [Example 80, (S)-2-(4-(1,1-Difluoropropyl)phenyl)-N-(4-(3-(1-phenylethoxy)pyrazin-2-yl)phenyl)acetamide], in that order: 69.5%, 86.3% and 100 to 500 nM.
Take `CCC(F)(F)c1ccc(CC(=O)Nc2ccc(-c3nccnc3OC(C)c3ccccc3C3CC3)cc2)cc1` (centres unmarked) [Example 81, N-(4-(3-(1-(2-Cyclopropylphenyl)ethoxy)pyrazin-2-yl)phenyl)-2-(4-(1,1-difluoropropyl)phenyl)acetamide]: the inhibition at 1 µM was 83.2%, the inhibition at 10 µM amounted to 88.3% and the IC50 fell in the range of 100 to 500 nM.
Consider `CC(O)C(F)(F)c1ccc(CC(=O)Nc2ccc(-c3nccnc3OC3(c4ccccc4)CC3)cc2)cc1` (centres unmarked) [Example 82, 2-(4-(1,1-Difluoro-2-hydroxypropyl)phenyl)-N-(4-(3-(1-phenylcyclopropoxy)pyrazin-2-yl)phenyl)acetamide], for which the inhibition at 1 µM was 37.9% and the inhibition at 10 µM came to 80.1%.
For the compound `CCC(F)(F)c1ccc(CC(=O)Nc2ccc(-c3nccnc3O[C@H](C)c3ccccc3Cl)cc2)cc1` [Example 83, (R)-N-(4-(3-(1-(2-Chlorophenyl)ethoxy)pyrazin-2-yl)phenyl)-2-(4-(1,1-difluoropropyl)phenyl)acetamide], the inhibition at 1 µM worked out at 79.7%, the inhibition at 10 µM is 78.2% and the IC50 is 50 to 100 nM.
As to `CC(O)C(F)(F)c1ccc(CC(=O)Nc2ccc(-c3nccnc3O[C@H](C)c3ccccc3Cl)cc2)cc1` (stereo partly drawn) [Example 84, N-(4-(3-((R)-1-(2-Chlorophenyl)ethoxy)pyrazin-2-yl)phenyl)-2-(4-(1,1-difluoro-2-hydroxypropyl)phenyl)acetamide], the inhibition at 1 µM is 83.8%, the inhibition at 10 µM was 81.9% and the IC50 fell in the range of 50 to 100 nM.
As for `CCC(F)(F)c1ccc(CC(=O)Nc2ccc(-c3nccnc3O[C@@H](C)c3ccccc3Cl)cc2)cc1` [Example 85, (S)-N-(4-(3-(1-(2-Chlorophenyl)ethoxy)pyrazin-2-yl)phenyl)-2-(4-(1,1-difluoropropyl)phenyl)acetamide], the inhibition at 1 µM came out at 74.8%, the inhibition at 10 µM worked out at 79.6% and the half-maximal inhibitory concentration (IC50) is 100 to 500 nM.
The corresponding values for `CC(O)C(F)(F)c1ccc(CC(=O)Nc2ccc(-c3nccnc3O[C@@H](C)c3ccccc3Cl)cc2)cc1` (stereo partly drawn) [Example 86, N-(4-(3-((S)-1-(2-Chlorophenyl)ethoxy)pyrazin-2-yl)phenyl)-2-(4-(1,1-difluoro-2-hydroxypropyl)phenyl)acetamide] are 84.5%, 86% and 50 to 100 nM.
For the compound `CCC(F)(F)c1ccc(CC(=O)Nc2ccc(-c3nccnc3Oc3ccccc3Cl)cc2)cc1` [Example 87, N-(4-(3-(2-Chlorophenoxy)pyrazin-yl)phenyl)-2-(4-(1,1-difluoropropyl)phenyl)acetamide], the inhibition at 1 µM worked out at 16.3% and the inhibition at 10 µM stood at 32.4%.
For the compound `Cc1ccc([C@@H](C)Oc2nccnc2-c2ccc(NC(=O)Cc3ccc(C(F)(F)C(C)O)cc3)cc2)c(Cl)c1` (stereo partly drawn) [Example 88, N-(4-(3-((R)-1-(2-Chloro-4-methylphenyl)ethoxy)pyrazin-2-yl)phenyl)-2-(4-(1,1-difluoro-2-hydroxypropyl)phenyl)acetamide], the inhibition at 1 µM came to 87.4%, the inhibition at 10 µM is 85.5% and the half-maximal inhibitory concentration (IC50) is < 50 nM.
Turning to `CCC(F)(F)c1ccc(CC(=O)Nc2ccc(-c3nccnc3OCc3c(C)noc3C)cc2)cc1` [Example 89, 2-(4-(1,1-Difluoropropyl)phenyl)-N-(4-(3-((3,5-dimethylisoxazol-4-yl)methoxy)pyrazin-2-yl)phenyl)acetamide], the inhibition at 1 µM was found to be 58.8% and the inhibition at 10 µM is 74.6%.
Turning to `Cc1noc(C)c1CCOc1nccnc1-c1ccc(NC(=O)Cc2ccc(C(F)(F)C(C)O)cc2)cc1` (centres unmarked) [Example 90, 2-(4-(1,1-Difluoro-2-hydroxypropyl)phenyl)-N-(4-(3-(2-(3,5-dimethylisoxazol-4-yl)ethoxy)pyrazin-2-yl)phenyl)acetamide], the inhibition at 1 µM came out at 90.7%, the inhibition at 10 µM worked out at 93.9% and the concentration for half-maximal inhibition (IC50) is < 50 nM.
With `CC(O)C(F)(F)c1ccc(CC(=O)Nc2ccc(-c3nccnc3OCc3ccccc3Cl)cc2)cc1` (centres unmarked) [Example 91, N-(4-(3-((2-Chlorobenzyl)oxy)pyrazin-2-yl)phrnyl)-2-(4-(1,1-difluoro-2-hydroxypropyl)phenyl)acetamide], the inhibition at 1 µM turned out to be 79.3%, the inhibition at 10 µM amounted to 82.6% and the half-inhibitory concentration (IC50) is < 50 nM.
The corresponding values for `Cc1ncsc1CCOc1nccnc1-c1ccc(NC(=O)Cc2ccc(C(F)(F)C(C)O)cc2)cc1` (centres unmarked) [Example 92, 2-(4-(1,1-Difluoro-2-hydroxypropyl)phenyl)-N-(4-(3-(2-(4-methylthiazol-5-yl)ethoxy)pyrazin-2-yl)phenyl)acetamide] are 83.5%, 88% and 50 to 100 nM.
Consider `CC(O)C(F)(F)c1ccc(CC(=O)Nc2ccc(-c3nccnc3OCC3CCCCC3)cc2)cc1` (centres unmarked) [Example 93, N-(4-(3-(Cyclohexylmethoxy)pyrazin-2-yl)phenyl)-2-(4-(1,1-difluoro-2-hydroxypropyl)phenyl)acetamide], for which the inhibition at 1 µM amounted to 86.6%, the inhibition at 10 µM came to 94.1% and the IC50 was in the range of 100 to 500 nM.

By inhibition is commonly meant the drop in the measured response relative to a control, in per cent. Broadly, the IC50 is the concentration at which inhibition is half-maximal.
